Assays:
NCI-H460 cells = test: Cancer cell growth inhibition experiment (MTT assay); assay type: cell-based; settings: Homo sapiens; NCI-H460 lung cancer cell line; 48 hours treatment; MTT cell viability
Experimental: NCI-H460 cells, lung cancer cell lines, were cultured in 5% CO2, 37° C. incubator using a flask for 75 cm^2 tissue culture. 96-well plates were used for the evaluation. These were prepared by differently applying at concentrations in the range of 6,000 to 12,000 cells/well according to the growth rate of the cell lines. The medium containing 5% FBS were dispensed in 200 μL/well and used. The medium were cultured for 24 hours. After confirming the cell status and dispensing form of a 96-well plate under a microscope, they were used for subsequent experiments. The compounds were evaluated at concentrations of 100, 30, 10, 3, 1, 0.3, 0.03, 0.01 μM. After removing the existing medium, the compounds with various concentrations were treated in an amount of 200 μL/well. The compounds-treated plates were further cultured for 48 hours, and the cell viabilities were measured by MTT assay to calculate IC50 values.
% Inhibition and IC50 values of the respective compounds were calculated and analyzed using Sigma Plot 8.0. The case where the derived IC50 is 5 μM or less is represented by “A”, the case where the IC50 is 5 to 30 μM is represented by “B”, and the case where the IC50 is 30 μM or higher is represented by “C”.

[1] = biological target: T1, PRS (prolyl-tRNA synthetase) (Homo sapiens, UniProt P07814); test: In vitro PRS enzyme activity inhibition experiment ([3H]proline, liquid scintillation); assay type: biochemical; settings: purified PRS protein subcloned from EPRS cDNA; 37° C., 5 to 10 minutes; read-out: PRS IC50
T1 construct: the portion corresponding to PRS in cDNA of EPRS was subcloned; made in house
T1 sequence (P07814 1007-1512 limits assumed): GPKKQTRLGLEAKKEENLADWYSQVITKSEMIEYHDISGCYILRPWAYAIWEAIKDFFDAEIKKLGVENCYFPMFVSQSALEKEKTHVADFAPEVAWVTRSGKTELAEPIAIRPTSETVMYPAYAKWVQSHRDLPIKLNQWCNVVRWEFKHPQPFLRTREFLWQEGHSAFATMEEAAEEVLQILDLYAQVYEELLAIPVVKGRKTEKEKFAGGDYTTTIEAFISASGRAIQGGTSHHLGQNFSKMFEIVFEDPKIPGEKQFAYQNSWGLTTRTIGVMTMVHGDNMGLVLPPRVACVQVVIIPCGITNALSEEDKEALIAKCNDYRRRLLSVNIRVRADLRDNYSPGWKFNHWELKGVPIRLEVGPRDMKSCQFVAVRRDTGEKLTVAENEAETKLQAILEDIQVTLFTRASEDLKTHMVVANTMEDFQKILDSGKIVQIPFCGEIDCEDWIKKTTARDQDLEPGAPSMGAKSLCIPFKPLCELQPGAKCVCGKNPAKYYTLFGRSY
How it was run: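 Purified human PRS domain subcloned from EPRS cDNA, reacted at 37 °C for 5–10 min in 20 mM KPO4 pH 7.4, 6 mM MgAc, 5 mM ATP, tRNA, 0.5 mM DTT and [3H]proline. Compounds tested at 1 μM. Aminoacylation read on TCA-treated filter paper by liquid scintillation, giving % inhibition or IC50.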

Row | SMILES | IC50 (NCI-H460 cells) | IC50 [1]
1 | COC(C[C@H]1NCCC[C@@H]1O)Cn1cnc2cc(Cl)c(Cl)cc21 (stereo partly drawn) [Example 83, (2R,3S)-2-(3-(5,6-dichloro-1H-benzo[d]imidazol-1-yl)-2-methoxypropyl)piperidin-3-ol] | ≥ 30 µM | > 0.5 µM
2 | Cc1c(Br)ccc2c1ncn2CC(O)C[C@H]1NCCC[C@@H]1O (stereo partly drawn) [Example 89, (2R,3S)-2-(3-(5-bromo-4-methyl-1H-benzo[d]imidazol-1-yl)-2-hydroxypropyl)piperidin-3-ol] | ≥ 30 µM | < 0.1 µM
3 | Cc1cc2ncn(CC(=O)C[C@H]3NCCC[C@@H]3O)c2cc1C [Example 9, 1-(5,6-dimethyl-1H-benzo[d]imidazol-1-yl)-3-((2R,3S)-3-hydroxypiperidin-2-yl)propan-2-one] | ≥ 30 µM | < 0.1 µM
4 | O=C(C[C@H]1NCCC[C@@H]1O)Cn1c(CO)nc2ccc(C(F)(F)F)cc21 [Example 59, 1-(2-(hydroxymethyl)-6-(trifluoromethyl)-1H-benzo[d]imidazol-1-yl)-3-((2R,3S)-3-hydroxypiperidin-2-yl)propan-2-one] | 5 to 30 µM | < 0.1 µM
5 | OCc1nc2cc(Cl)c(Cl)cc2n1CC(O)C[C@H]1NCCC[C@@H]1O (stereo partly drawn) [Example 88, (2R,3S)-2-(3-(5,6-dichloro-2-(hydroxymethyl)-1H-benzo[d]imidazol-1-yl)-2-hydroxypropyl)piperidin-3-ol] | ≥ 30 µM | 0.1 to 0.5 µM
6 | Cc1ccc2c(nc(CO)n2CC(=O)C[C@H]2NCCC[C@@H]2O)c1C [Example 62, 1-(2-(hydroxymethyl)-4,5-dimethyl-1H-benzo[d]imidazol-1-yl)-3-((2R,3S)-3-hydroxypiperidin-2-yl)propan-2-one] | ≥ 30 µM | > 0.5 µM
7 | CCc1nc2cc(Cl)c(Cl)cc2n1CC(=O)C[C@H]1NCCC[C@@H]1O [Example 48, 1-(5,6-dichloro-2-ethyl-1H-benzo[d]imidazol-1-yl)-3-((2R,3S)-3-hydroxypiperidin-2-yl)propan-2-one] | ≥ 30 µM | > 0.5 µM
8 | CC(O)(C[C@H]1NCCC[C@@H]1O)Cn1cnc2cc(Cl)c(Cl)cc21 (stereo partly drawn) [Example 84, (2R,3S)-2-(3-(5,6-dichloro-1H-benzo[d]imidazol-1-yl)-2-hydroxy-2-methylpropyl)piperidin-3-ol] | ≥ 30 µM | > 0.5 µM
9 | O=C(C[C@H]1NCCC[C@@H]1O)Cn1cnc2cc(F)c(F)cc21 [Example 10, 1-(5,6-difluoro-1H-benzo[d]imidazol-1-yl)-3-((2R,3S)-3-hydroxypiperidin-2-yl)propan-2-one] | 5 to 30 µM | 0.1 to 0.5 µM
10 | O=C(C[C@H]1NCCC[C@@H]1O)Cn1c(CO)nc2cccc(OC(F)(F)F)c21 [Example 61, 1-(2-(hydroxymethyl)-7-(trifluoromethoxy)-1H-benzo[d]imidazol-1-yl)-3-((2R,3S)-3-hydroxypiperidin-2-yl)propan-2-one] | ≥ 30 µM | > 0.5 µM
11 | O=C(C[C@@H]1CCCN1)Cn1cnc2cc(Cl)c(Cl)cc21 [Example 90, (S)-1-(5,6-dichloro-1H-benzo[d]imidazol-1-yl)-3-(pyrrolidin-2-yl)propan-2-one] | ≥ 30 µM | > 0.5 µM
12 | O[C@H]1CCCN[C@@H]1CC(F)Cn1cnc2cc(Cl)c(Cl)cc21 (stereo partly drawn) [Example 81, (2R,3S)-2-(3-(5,6-dichloro-1H-benzo[d]imidazol-1-yl)-2-fluoropropyl)piperidin-3-ol] | ≥ 30 µM | > 0.5 µM
13 | Cc1nc2cc(Cl)c(Cl)cc2n1CC(=O)C[C@H]1NCCC[C@@H]1O [Example 46, 1-(5,6-dichloro-2-methyl-1H-benzo[d]imidazol-1-yl)-3-((2R,3S)-3-hydroxypiperidin-2-yl)propan-2-one] | ≥ 30 µM | < 0.1 µM
14 | Cc1cc(Br)cc2c1ncn2CC(=O)C[C@H]1NCCC[C@@H]1O [Example 23, 1-(6-bromo-4-methyl-1H-benzo[d]imidazol-1-yl)-3-((2R,3S)-3-hydroxypiperidin-2-yl)propan-2-one] | 5 to 30 µM | < 0.1 µM

Continued, values first:

Row | IC50 (NCI-H460 cells) | IC50 [1] | SMILES
15 | ≥ 30 µM | > 0.5 µM | O=C(C[C@H]1NCCC[C@@H]1O)Cn1ccc2ccc(Br)nc21 [Example 92, 1-(6-bromo-1H-pyrrolo[2,3-b]pyridin-1-yl)-3-((2R,3S)-3-hydroxypiperidin-2-yl)propan-2-one]
16 | ≤ 5 µM | < 0.1 µM | O=C(C[C@H]1NCCC[C@@H]1O)Cn1cnc2c(F)c(Br)ccc21 [Example 20, 1-(5-bromo-4-fluoro-1H-benzo[d]imidazol-1-yl)-3-((2R,3S)-3-hydroxypiperidin-2-yl)propan-2-one]
17 | 5 to 30 µM | < 0.1 µM | O=C(C[C@H]1NCCC[C@@H]1O)Cn1cnc2ccc(C(F)(F)F)nc21 [Example 36, 1-((2R,3S)-3-hydroxypiperidin-2-yl)-3-(5-(trifluoromethyl)-3H-imidazo[4,5-b]pyridin-3-yl)propan-2-one]
18 | 5 to 30 µM | < 0.1 µM | O=C(C[C@H]1NCCC[C@@H]1O)Cn1cnc2ccc(Cl)cc21 [Example 3, 1-(6-chloro-1H-benzo[d]imidazol-1-yl)-3-((2R,3S)-3-hydroxypiperidin-2-yl)propan-2-one]
19 | ≥ 30 µM | 0.1 to 0.5 µM | O=C(C[C@H]1NCCC[C@@H]1O)Cn1cnc2cc(C(F)(F)F)ccc21 [Example 6, 1-((2R,3S)-3-hydroxypiperidin-2-yl)-3-(5-(trifluoromethyl)-1H-benzo[d]imidazol-1-yl)propan-2-one]
20 | 5 to 30 µM | < 0.1 µM | O=C(C[C@H]1NCCC[C@@H]1O)Cn1cnc2ccc(Br)nc21 [Example 35, 1-(5-bromo-3H-imidazo[4,5-b]pyridin-3-yl)-3-((2R,3S)-3-hydroxypiperidin-2-yl)propan-2-one]
21 | 5 to 30 µM | < 0.1 µM | O=C(C[C@H]1NCCC[C@@H]1O)Cn1cnc2cc(Cl)ccc21 [Example 2, 1-(5-chloro-1H-benzo[d]imidazol-1-yl)-3-((2R,3S)-3-hydroxypiperidin-2-yl)propan-2-one]
22 | ≥ 30 µM | > 0.5 µM | O=C(C[C@H]1NCCC[C@@H]1O)Cn1cnc2ccccc21 [Example 1, 1-(1H-benzo[d]imidazol-1-yl)-3-((2R,3S)-3-hydroxypiperidin-2-yl)propan-2-one]
23 | ≤ 5 µM | < 0.1 µM | Cc1c(F)ccc2c1ncn2CC(=O)C[C@H]1NCCC[C@@H]1O [Example 13, 1-(5-fluoro-4-methyl-1H-benzo[d]imidazol-1-yl)-3-((2R,3S)-3-hydroxypiperidin-2-yl)propan-2-one]
24 | ≥ 30 µM | > 0.5 µM | O=C(C[C@H]1NCCC[C@@H]1O)Cn1cnc2nc(C(F)(F)F)ccc21 [Example 30, 1-((2R,3S)-3-hydroxypiperidin-2-yl)-3-(5-(trifluoromethyl)-1H-imidazo[4,5-b]pyridin-1-yl)propan-2-one]
25 | ≥ 30 µM | < 0.1 µM | Cc1c(Cl)ccc2ncn(CC(=O)C[C@H]3NCCC[C@@H]3O)c12 [Example 28, 1-(6-chloro-7-methyl-1H-benzo[d]imidazol-1-yl)-3-((2R,3S)-3-hydroxypiperidin-2-yl)propan-2-one]
26 | 5 to 30 µM | 0.1 to 0.5 µM | O=C(C[C@H]1NCCC[C@@H]1O)Cn1cnc2c(F)c(F)ccc21 [Example 11, 1-(4,5-difluoro-1H-benzo[d]imidazol-1-yl)-3-((2R,3S)-3-hydroxypiperidin-2-yl)propan-2-one]
27 | 5 to 30 µM | < 0.1 µM | O=C(C[C@H]1NCCC[C@@H]1O)Cn1cnc2ccc(C(F)(F)F)cc21 [Example 7, 1-((2R,3S)-3-hydroxypiperidin-2-yl)-3-(6-(trifluoromethyl)-1H-benzo[d]imidazol-1-yl)propan-2-one]
28 | 5 to 30 µM | < 0.1 µM | O=C(C[C@H]1NCCC[C@@H]1O)Cn1cnc2cc(Br)c(Br)cc21 [Example 27, 1-(5,6-dibromo-1H-benzo[d]imidazol-1-yl)-3-((2R,3S)-3-hydroxypiperidin-2-yl)propan-2-one]
29 | ≤ 5 µM | < 0.1 µM | O=C(C[C@H]1NCCC[C@@H]1O)Cn1cnc2c(Cl)c(Br)ccc21 [Example 22, 1-(5-bromo-4-chloro-1H-benzo[d]imidazol-1-yl)-3-((2R,3S)-3-hydroxypiperidin-2-yl)propan-2-one]

Reference: patent US10081634B2, “Heterocyclic compound” (Daewoong Pharmaceutical Co., Ltd., priority 2014, dated 2018)
